Among the test systems are A549 NSCLC; TK-10 renal; MCF7 breast; SN12C renal; CAKI-1 renal; K-562 leukemia; OVCAR-8 ovarian; IGROV1 ovarian; NCI-H522 lung; SR leukemia; HS 578T breast; BT-549 breast.
Holding throughout (experiment): NCI anticancer screen, dose series, 48 h

The source of these data is PubChem BioAssay (NCI).

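Compound exposure: 48 hours, 5 concentrations, 96-well plates. TGI denotes the concentration required for complete inhibition of growth.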

As for `COC(=O)C1=C2SCc3cccc(c3)CSC3=C(C(=O)OC)SC(=C(S2)S1)S3`, the TGI in the experiment with A549 NSCLC, in the experiment with TK-10 renal, with MCF7 breast, in the experiment with SN12C renal, in the experiment with CAKI-1 renal and in the experiment on K-562 leukemia was above 100 µM each time.
As for `O=C(CSc1nnc(Cc2ccccc2)o1)Nc1ccc([N+](=O)[O-])cc1`, the TGI with OVCAR-8 ovarian, in the experiment with A549 NSCLC, in the experiment with TK-10 renal, in the experiment with IGROV1 ovarian, in the experiment on NCI-H522 lung and with SN12C renal was above 100 µM in each case. Moreover, the TGI with K-562 leukemia is above 100 µM.
Turning to `O=C(Cc1ccccc1)NN1C(=O)C(Cl)C1c1ccc(O)cc1` (stereo unspecified), the TGI with SR leukemia, with OVCAR-8 ovarian, in the experiment on A549 NSCLC, with TK-10 renal, in the experiment on IGROV1 ovarian and in the experiment with NCI-H522 lung was above 100 µM throughout. Further, the TGI in the experiment with SN12C renal, in the experiment on CAKI-1 renal and in the experiment with K-562 leukemia was above 100 µM each time.
Turning to `CC(C)C(=O)/C=C/c1ccc(Br)cc1`, the TGI is 53.6 µM with SR leukemia; 62.9 µM in the experiment with OVCAR-8 ovarian; 65.5 µM in the experiment with A549 NSCLC; 32.3 µM with TK-10 renal; 34.5 µM in the experiment on IGROV1 ovarian; 41.5 µM in the experiment with NCI-H522 lung. Further, the TGI is 28.5 µM in the experiment on SN12C renal and above 100 µM with K-562 leukemia.
`CC(=O)Nc1cc2c(s1)CCC1CC(=O)NN=C21` (stereo unspecified): the TGI with SR leukemia, in the experiment on OVCAR-8 ovarian, in the experiment with A549 NSCLC, in the experiment with TK-10 renal, with IGROV1 ovarian and with NCI-H522 lung was above 100 µM throughout. Besides, the TGI in the experiment on SN12C renal and in the experiment on K-562 leukemia was above 100 µM throughout.
For the compound `O=C(Cc1ccccc1)NN1C(=O)/C(=C\c2cccc(O)c2)SC1=Nc1ccccc1`, the TGI with OVCAR-8 ovarian, with A549 NSCLC, in the experiment on TK-10 renal, in the experiment on MCF7 breast, with IGROV1 ovarian and in the experiment on HS 578T breast was above 100 µM each time. For the same compound, the TGI with SN12C renal is above 100 µM.
`COC(=O)N/N=C(\C)C(CN1CCCCC1)C(C1=C(O)c2ccccc2OC1)c1ccccc1` (stereo unspecified): the TGI in the experiment on SR leukemia, in the experiment on OVCAR-8 ovarian, with A549 NSCLC, in the experiment on TK-10 renal, in the experiment with IGROV1 ovarian and in the experiment with NCI-H522 lung was above 100 µM each time. The TGI with SN12C renal, in the experiment with CAKI-1 renal and in the experiment on K-562 leukemia was above 100 µM each time.
As for `O=C1OC2(OC2c2ccccc2)c2ccccc21` (stereo unspecified), the TGI in the experiment with SR leukemia, in the experiment on OVCAR-8 ovarian, in the experiment with A549 NSCLC, in the experiment with TK-10 renal, with IGROV1 ovarian and in the experiment with NCI-H522 lung was above 100 µM in each case. Moreover, the TGI in the experiment on SN12C renal and in the experiment on K-562 leukemia was above 100 µM in each case.
Take `O=C1c2ccccc2C(=O)N1Cc1ccccc1-c1c2nc(c(-c3ccccc3CN3C(=O)c4ccccc4C3=O)c3ccc([nH]3)c(-c3ccccc3CN3C(=O)c4ccccc4C3=O)c3nc(c(-c4ccccc4CN4C(=O)c5ccccc5C4=O)c4ccc1[nH]4)C=C3)C=C2`: the TGI in the experiment with SR leukemia, in the experiment with OVCAR-8 ovarian, in the experiment with A549 NSCLC, with TK-10 renal, in the experiment on IGROV1 ovarian and in the experiment on NCI-H522 lung was above 100 µM in each case. The TGI in the experiment with SN12C renal, with CAKI-1 renal and with K-562 leukemia was above 100 µM each time.
Consider `Cc1cn(C(Cc2ccccc2)OCCO)c(=O)[nH]c1=O` (stereo unspecified), for which the TGI with BT-549 breast, in the experiment with SR leukemia, with OVCAR-8 ovarian, with A549 NSCLC, in the experiment on MCF7 breast and in the experiment with IGROV1 ovarian was above 100 µM each time. Besides, the TGI in the experiment with SN12C renal, in the experiment with CAKI-1 renal and in the experiment on K-562 leukemia was above 100 µM in each case.
As to `CCCCCC(=O)NC(=S)Nc1nn[nH]n1`, the TGI with SR leukemia, in the experiment with A549 NSCLC, in the experiment on TK-10 renal, in the experiment with MCF7 breast, with IGROV1 ovarian and with NCI-H522 lung was above 100 µM throughout. Also, the TGI in the experiment with HS 578T breast, with SN12C renal, in the experiment on CAKI-1 renal and in the experiment on K-562 leukemia was above 100 µM each time.
As to `COC(=O)[C@@H]1CCCN1CCN1CCC[C@H]1C(=O)OC`, the TGI was 86.6 µM in the experiment on SR leukemia; above 100 µM with OVCAR-8 ovarian; above 100 µM in the experiment on A549 NSCLC; above 100 µM in the experiment with TK-10 renal; above 100 µM with MCF7 breast; above 100 µM with NCI-H522 lung. Further, the TGI in the experiment on SN12C renal, with CAKI-1 renal and with K-562 leukemia was above 100 µM throughout.
As to `O=C1CCCCC(=O)OC2(CCCCC2=O)CC1` (stereo unspecified), the TGI with BT-549 breast, with SR leukemia, in the experiment on OVCAR-8 ovarian, with A549 NSCLC, with TK-10 renal and in the experiment with MCF7 breast was above 100 µM in each case. The TGI with IGROV1 ovarian, with NCI-H522 lung, with SN12C renal, in the experiment with CAKI-1 renal and with K-562 leukemia was above 100 µM throughout.
As to `N#C/C(=C\n1ccc(=O)[nH]c1=S)C(N)=O`, the TGI in the experiment with SR leukemia, with OVCAR-8 ovarian, with A549 NSCLC, in the experiment with MCF7 breast, with IGROV1 ovarian and in the experiment with NCI-H522 lung was above 100 µM each time. Also, the TGI with HS 578T breast, with SN12C renal, in the experiment on CAKI-1 renal and with K-562 leukemia was above 100 µM throughout.
Turning to `NP(=O)(OCC1=CC(=O)c2ccccc2C1=O)N(CCBr)CCBr` (stereo unspecified), the TGI is 9.75 µM in the experiment with SR leukemia; 37.2 µM with OVCAR-8 ovarian; 26.5 µM in the experiment with A549 NSCLC; 33.1 µM in the experiment with TK-10 renal; above 40.9 µM with MCF7 breast; 38.3 µM in the experiment on IGROV1 ovarian. For the same compound, the TGI with NCI-H522 lung was 10.9 µM; in the experiment with HS 578T breast, 90.7 µM; in the experiment on SN12C renal, 33.9 µM; in the experiment on CAKI-1 renal it was 8.1 µM; in the experiment with K-562 leukemia, above 100 µM.
